Experimental data taken from US8822509B2, “Pain-relieving compositions and uses therefor” (priority 2006, dated 2014).
Entries after “also recorded” stand apart in the source; their conditions may differ. Like-named read-outs stand apart in the source and are kept apart here. Marks after values point to notes of the source that are not given here.

Columns and labels:
[1] = target: T1, μ-opioid receptors (MOP receptors) (Mus musculus, UniProt P42866); format: cell-based
T1 construct: expressed in transfected cells; host or cells: HEK293
Method: Briefly, HEK-MOP cells were pre-incubated with 2% (2-hydroxypropyl)-β-cyclodextrin (βCD) for 1 h at 37° C. to deplete cholesterol from caveloae in the cell membrane. Cells were washed with DMEM and then utilized in the forskolin-stimulated cAMP assay as described above. […] Cells were washed with DMEM and then utilized in the forskolin-stimulated cAMP assay as described above.

[2] = target: T1, μ-opioid receptors (MOP receptors); format: cell-based; remark: listed apart in the source

T1 sequence (P42866 whole entry): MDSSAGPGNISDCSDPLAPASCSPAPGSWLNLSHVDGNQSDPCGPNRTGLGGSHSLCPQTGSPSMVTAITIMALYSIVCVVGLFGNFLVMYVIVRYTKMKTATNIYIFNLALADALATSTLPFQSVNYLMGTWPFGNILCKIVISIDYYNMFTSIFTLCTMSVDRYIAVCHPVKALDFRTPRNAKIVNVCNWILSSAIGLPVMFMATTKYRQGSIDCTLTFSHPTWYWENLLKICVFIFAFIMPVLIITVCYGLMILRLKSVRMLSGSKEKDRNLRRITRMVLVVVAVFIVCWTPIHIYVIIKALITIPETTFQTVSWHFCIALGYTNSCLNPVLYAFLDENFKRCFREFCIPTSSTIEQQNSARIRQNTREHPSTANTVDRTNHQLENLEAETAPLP

Row | SMILES | % of forskolin stimulated cyclic AMP response ([1]; Conc 10^−3 M) [%] | % of forskolin stimulated cyclic AMP response ([1]; Conc 10^−4 M) | % of forskolin stimulated cyclic AMP response ([1]; Conc 10^−5 M) | % of forskolin stimulated cyclic AMP response ([1]; Conc 10^−6 M) | % of forskolin stimulated cyclic AMP response ([1]; Conc 10^−7 M) [%] | % of forskolin stimulated cyclic AMP response ([1]; Conc 10^−8 M) | % of forskolin stimulated cyclic AMP response ([1]; Conc 10^−9 M) | % of forskolin stimulated cyclic AMP response ([1]; Conc 10^−11 M) [%] | % of forskolin stimulated cyclic AMP response ([1]; Conc 10^−13 M) | % of forskolin stimulated cyclic AMP response ([1]; Conc 10^−14 M) | % of forskolin stimulated cyclic AMP response ([1]; Conc 10^−15 M) | % of forskolin stimulated cyclic AMP response ([1]; Conc 10^−16 M) | % of forskolin stimulated cyclic AMP response ([1]; Conc 10^−17 M) | % of forskolin stimulated cyclic AMP response ([1]; Conc 10^−18 M) | % of forskolin stimulated cyclic AMP response ([2]; Conc 10^−10 M) [%] | % of forskolin stimulated cyclic AMP response ([2]; Conc 10^−12 M) | effect on forskolin-stimulated cAMP responses ([2]; MOP-transfected HEK293 (FIG. 11))
1 | [O-][n+]1onc(-c2ccccc2)c1-c1ccccc1 [Compound 5] | 69.6 | 99.8% | 120.4% | 142.4% | 112.7 | 73.6% | 57.7% | 76.3 | 102.3% | 105.6% | 117.0% | 91.2% | 75.8% | 68.7% | 79.2 | 119.1% | –
2 | Nc1nc2c(nc(Br)n2[C@@H]2O[C@@H]3COP(=O)(O)O[C@H]3[C@H]2O)c(=O)[nH]1 [Compound 8-Br-cGMP, 8-Br-cGMP, reference compound] | – | – | – | – | – | – | – | – | – | – | – | – | – | – | – | – | did not inhibit forskolin-stimulated cAMP responses; also recorded: lack of effects
3 | CCc1c(C(=O)O)no[n+]1[O-] [Compound 8] | 6.8 | 68.2% | 90.0% | 104.7% | 102.9 | 114.3% | 107.0% | 88.3 | 112.7% | 94.8% | 97.6% | 140.5% | 115.0% | 72.8% | 79.4 | 128.3% | –
4 | Cc1c(-c2ccccc2)no[n+]1[O-] [Compound 13] | 40.2 | 67.1% | 109.4^a % | 84.5^a % | 78.8 | 80.3% | 94.9% | 66.3 | 89.6% | 99.4^a % | 101.5% | 88.3^a % | 105.3% | 61.2% | 106.9 | 108.8% | –
5 | O=Cc1c(-c2ccccc2)no[n+]1[O-] [Compound 14] | 8.5 | 40.7^a % | 51.0^a % | 110.6^a % | 121.5 | 113.2^a % | 107.4% | 62.7 | 94.2% | 103.4^a % | 103.8% | 129.8% | 120.5% | 95.1% | 69.5 | 92.8% | –
6 | O=C(O)c1c(-c2ccc(F)cc2)no[n+]1[O-] [Compound 18] | 7.1 | 79.0% | 97.7% | 101.0% | 91.9 | 81.7% | 142.3^a % | 77.5 | 85.4% | 85.3% | 90.4% | 89.6% | 94.1% | 54.7^a % | 83.6 | 82.2% | –
7 | [O-][n+]1onc(-c2ccc(F)cc2)c1-c1ccc(F)cc1 [Compound 21] | 7.1 | 42.1% | 63.5% | 53.0% | 47.3 | 57.5% | 46.5% | 29.9 | 61.5% | 59.7% | 64.0% | 67.7% | 49.1% | 38.7% | 38.4 | 42.9% | –
8 | Cc1c(-c2ccc(F)cc2)no[n+]1[O-] [Compound 23] | 46.6 | 121.2% | 66.2% | 90.0% | 89.0 | 98.2% | 64.0% | 75.7 | 87.6% | 79.2% | 80.4% | 77.1% | 73.6% | 80.2% | 56.5 | 74.7% | –
9 | COc1ccc(-c2no[n+]([O-])c2C)cc1 [Compound 24] | 71.2 | 106.7^a % | 131.1^a % | 56.7% | 94.3 | 53.8^a % | 132.4% | 79.4 | 82.3% | 75.1% | 97.0^a % | 88.0% | 70.0% | 70.0% | 60.2 | 90.1% | –
10 | CC(=O)c1c(-c2ccccc2)no[n+]1[O-] [Compound 27] | 22.4 | 73.8^a % | 128.2% | 60.0% | 83.2 | 86.4% | 56.4% | 84.4 | 88.3^a % | 78.2% | 115.4% | 162.4% | 108.6^a % | 56.5% | 46.0 | 66.7^a % | –
